{"source": "patent US6709849B2", "about": "“Dietary supplements for regulating male hormone” (priority 2002, dated 2004)", "key": {"[1]": {"system": "castrated male Wistar rats", "experiment": "Growth of prostate, seminal vesicle and glandulae preputiales in castrated Wistar rats (wet weight)", "assay_type": "in vivo, rat", "conditions": "daily for 14 days, sacrificed 24 hours after last administration, yeast 3 ml daily intragastric, testosterone propionate 25 mg/kg daily i.m.", "method": "(§1) The activated yeast compositions used in the following examples were prepared as described above, using Saccharomyces cerevisiae Hansen AS2.504, cultured in the presence of an alternating electric field having the electric field frequency and field strength exemplified in the parentheses following the recommended ranges listed in Section IV, supra. Control (i.e., untreated) yeast compositions were those prepared in the same manner as described in Section VI, supra, except that the yeast cells were cultured in the absence of EMFs. Unless otherwise indicated, the yeast compositions and the corresponding controls were administered to the animals by intragastric feeding.\nTo test the ability of the EMF-treated AS2.504 cells to regulate male hormone, twenty-four healthy male Wistar rats (about 50 g body weight, 20 days old) were selected. Under ether anesthesia, both testes of each rat were removed under sterile conditions. The castrated rats were then randomly divided into four equal groups. The activated yeast composition was administered to Group A rats at a dose of 3 ml daily continuously for 14 consecutive days. […]\nEach rat was sacrificed 24 hours after the last administration of the composition of interest. […] The wet weight of the prostate and seminal vesicle was recorded (Table 2). […] The wet weight of the removed glandulae preputiales was also recorded (Table 2)."}, "[2]": {"system": "castrated male NIH-grade mice", "experiment": "Growth of seminal vesicle and glandulae preputiales in castrated mice (weight)", "assay_type": "in vivo, mouse", "conditions": "7 days, yeast 1.5 ml/dose twice daily intragastric, testosterone propionate 20 mg/kg i.m. every other day", "method": "as §1\nForty male NIH-grade castrated mice (about 25-30 g each) were randomly divided into four equal groups. Three days after castration, the activated yeast composition was administered to each of the Group A mice twice daily at 1.5 ml/dose for seven consecutive days. The control yeast composition was administered to each of the Group B mice at the same daily dosage for seven consecutive days. Testosterone propionate was injected intramuscularly to each of the Group C mice in the buttocks at 20 mg/kg every other day, i.e., on days 1, 3, 5, and 7, for a total of 7 days. Saline was orally administered to each of the Group D […] twice daily at 1.5 ml/dose for seven consecutive days. […]"}}}
{"smiles": "CCC(=O)O[C@H]1CC[C@H]2[C@@H]3CCC4=CC(=O)CC[C@]4(C)[C@H]3CC[C@]12C", "note": "[testosterone propionate, Testosterone propionate]", "values": [{"measurement": "Glandulae Preputiales (wet weight)", "setting": "[1]", "result": "98.6 ± 15.8"}, {"measurement": "Prostate and Seminal Vesicle (wet weight)", "setting": "[1]", "result": "91.5 ± 12.8"}, {"measurement": "Glandulae Preputiales (mg/100 g body weight)", "setting": "[2]", "result": "323.7 ± 50.6", "unit": "mg/100 g body weight"}, {"measurement": "Seminal Vesicle (mg/100 g body weight)", "setting": "[2]", "result": "268.2 ± 56.2", "unit": "mg/100 g body weight"}]}
